{"source": "patent US10357577B2", "about": "“Bacterial nitroreductase enzymes and methods relating thereto” (AUCKLAND UNISERVICES LIMITED, priority 2010, dated 2019)", "key": {"[1]": {"conditions": "cited from earlier work"}, "E. coli NfsA": {"target": "T1, E. coli NfsA (Escherichia coli, UniProt P17117)", "T1 construct": "his6; made in house", "T1 sequence (P17117 whole entry)": "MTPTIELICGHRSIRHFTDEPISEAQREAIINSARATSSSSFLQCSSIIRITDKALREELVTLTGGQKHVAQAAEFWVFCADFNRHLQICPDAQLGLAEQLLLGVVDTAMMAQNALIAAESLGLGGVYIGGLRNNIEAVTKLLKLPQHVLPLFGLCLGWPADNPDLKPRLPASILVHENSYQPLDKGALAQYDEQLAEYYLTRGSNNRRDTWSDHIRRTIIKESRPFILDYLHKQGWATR", "test": "Purified enzyme kinetics (NADPH oxidation at 340 nm)", "type": "biochemical", "conditions": "0.25 mM NADPH, varying EF5", "description": "FIG. 12 illustrates the purified enzyme kinetic data for eleven E. coli nitroreductases with EF5 as a substrate. Reactions contained 10 mM Tris-Cl (pH 7.0), 4% DMSO, 0.25 mM NADPH and varying EF5 concentrations. Reactions were initiated by addition of 10 μl enzyme and changes in absorbance were measured for 15 s at 340 nm on a spectrophotometer to monitor NTR-catalysed NADPH oxidation.\nFor EF5 and other 2-NI bio-imaging agents, steady-state enzyme kinetics with purified NTRs were assessed spectrophotometrically at 340 nm to monitor NTR catalyzed NADPH oxidation. The molar extinction co-efficient of NADPH (6,220 M^−1 cm^−1) was used for the calculation of enzyme activity. For PR-104A, reduction was measured directly at 400 nm (ε=6,000 M^−1 cm^−1); and for CB1954, reduction was measured directly at 420 nm (ε=1,200 M^−1 cm^−1). Reactions were performed in 100 μl in UVettes (Eppendorf), using the 2 mm light path length. Reactions contained 10 mM Tris-Cl (pH 7.0), 4% DMSO, 0.25 mM NADPH and varying EF5 or PR-104A concentrations. Reactions were initiated by addition of 10 μl enzyme and changes in absorbance were measured for 15 s (during linearity). For calculation of Km and kcat, substrate concentrations were varied from ˜0.2×Km to 5×Km. Non-linear regression analysis and Michaelis-Menten curve fitting was performed using Sigmaplot 10.0 (Systat Software Inc.)."}, "[2]": {"test_system": "HCT116 cells expressing E. coli NfsA", "type": "cell-based, human", "conditions": "18 hrs exposure, 5 days regrowth; IC50 of WT versus NTR-expressing cells", "description": "(§1) FIGS. 10 (B) and 10 (C) illustrates the results of evaluation of 2-nitroimidazole clinical imaging candidates with E. coli and non-E. coli NTRs. Stably-expressing cells were treated with varying concentration of 2-nitroimidazole prodrugs diluted in αMEM+5% FCS+P/S. Cells were exposed to prodrug for 18 hrs, washed and left to regrow for 5 days. IC50 was determined as the concentration of prodrug required to inhibit cell growth by 50% of untreated controls. IC50 values are mean for ≥2 independent experiments. WT:NTR ratio-ratio of IC50 means from WT cells versus NTR-expressing cell lines.\nas §1, with “FIG. 21” for “FIGS. 10 (B) and 10 (C)”, “antiproliferative activity (IC50 value)” for “the results”, “prodrug” for “evaluation of 2-nitroimidazole clinical imaging”, “nitroreductases.” for “NTRs.”, “prodrug” for “2-nitroimidazole prodrugs”, “ratio-interexperimental ratio” for “ratio-ratio”\nIsolated NTR gene sequences were subject to PCR and introduced in the bicistronic plasmid F579 via Gateway cloning (Invitrogen) as described by Prosser et al. (2010, Biochem Pharmacol, 79, 678-687). Stably transfected cell lines were created by transfection of the relevant plasmid using FuGENE 6 Transfection Reagent (Roche). Transfected cell populations were maintained by passage in puromycin\nCells were passaged in alpha-Minimal Essential Media, (αMEM; Gibco) supplemented with 5% FBS, (GIBCO NZ) without antibiotics. Cell were passaged for <3 months from frozen stocks and confirmed Mycoplasma free (PCR-ELISA; Roche Diagnostics). Cells were aliquoted into the 96-well plate (100 μL/well) and cells were left to attach (≥4 hrs). […] Plates were read on an ELx 808 Absorbance Microplate Reader (Bio-Tek Instruments). Absorbance was measured at 490 nm and 450 nm (final absorbance 490-450). […]"}}}
{"smiles": "O=C(Cn1ccnc1[N+](=O)[O-])NCC(F)(F)C(F)(F)F", "note": "[EF5, 2-(2-nitro-1H-imidazol-1-yl)-N-(2,2,3,3,3-pentafluoropropyl)acetamide]", "values": [{"measurement": "tolerability (in words)", "setting": "[1]; EF5 21 mg/kg, injected", "result": "without any toxicities"}, {"measurement": "concentration-time achieved in human plasma", "setting": "[1]; cold EF5 9 mg/kg", "result": 0.89, "unit": "mM-hr"}, {"measurement": "enzyme kinetics with EF5 as substrate, rank among 11 E. coli NTRs (in words)", "setting": "E. coli NfsA", "result": "highest kcat and kcat/Km ratio"}, {"measurement": "WT:NTR ratio (maximum growth inhibitory effect)", "setting": "[2]", "result": 1600, "unit": "fold"}]}
